Experiment [1] has as its target T1, SUMO-activating enzyme (Homo sapiens, UniProt Q9UBT2). The experiment can be described thus: blockers of SAE1/SAE2–UBC9 SUMO transfer – biochemical, HTRF, uHTS, primary screen (AID 2006). The class given is protein-complex assay. (TR-FRET usually uses a lanthanide donor and a delayed reading to cut background.)
Experiment [2] deals with T2, Estrogen receptor (Homo sapiens, UniProt P03372).
T2 sequence (P03372 whole entry): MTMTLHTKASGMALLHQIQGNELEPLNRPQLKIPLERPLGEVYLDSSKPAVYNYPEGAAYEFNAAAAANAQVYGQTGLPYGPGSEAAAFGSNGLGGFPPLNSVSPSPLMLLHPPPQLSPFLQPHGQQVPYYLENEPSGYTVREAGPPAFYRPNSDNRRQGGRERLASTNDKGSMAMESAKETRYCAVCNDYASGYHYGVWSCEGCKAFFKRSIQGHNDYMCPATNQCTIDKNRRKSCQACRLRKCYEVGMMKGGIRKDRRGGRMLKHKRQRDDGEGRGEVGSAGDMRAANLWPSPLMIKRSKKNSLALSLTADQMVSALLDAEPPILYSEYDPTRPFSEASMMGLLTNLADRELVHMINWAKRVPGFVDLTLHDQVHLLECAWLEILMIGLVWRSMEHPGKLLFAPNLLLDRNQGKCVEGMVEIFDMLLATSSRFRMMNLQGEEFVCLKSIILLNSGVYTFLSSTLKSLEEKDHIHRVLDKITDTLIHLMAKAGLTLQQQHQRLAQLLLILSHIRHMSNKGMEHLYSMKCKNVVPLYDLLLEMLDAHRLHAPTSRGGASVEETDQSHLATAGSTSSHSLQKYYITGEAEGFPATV
The experiment can be described thus: ERα coactivator recruitment enhancers – biochemical, TR-FRET, ERα LBD, dose response (AID 737).

Experiment [3] deals with T2, Estrogen receptor.
The target in experiment [4] is T1, SUMO-activating enzyme. The experiment can be described thus: blockers of UBC9-mediated SUMO conjugation – biochemical, AlphaScreen, SUMOylation inhibitor project, confirmation (AID 2018). It counts as functional. On the technique in general: Alpha assays give light when donor and acceptor beads are brought close together.
Experiment [5] has as its target T3, Mu-type opioid receptor (Homo sapiens, UniProt P35372). Kind of experiment: SAR Analysis of Agonists of the MOR Receptor using an Image-Based Assay - Set 2. [Related pubchem assays (depositor defined):AID1777, AID1785, AID1786, AID1966, AID2133, AID2136, AID2284, AID2285, AID2352]. It counts as functional.
Experiment [6] has as its target T4, Kappa-type opioid receptor (Homo sapiens, UniProt P41145). Kind of experiment: SAR analysis of Antagonists of the Kappa Opioid Receptor (KOR) using an Image-Based Assay - Set 2. [Related pubchem assays (depositor defined):AID1777, AID1785, AID1786, AID1966, AID2133, AID2136, AID2284, AID2285, AID2348]. The class given is functional.
Experiment [7] deals with T5, Delta-type opioid receptor (Homo sapiens, UniProt P41143). The experiment can be described thus: SAR Analysis of Antagonists of the DOR Receptor using an Image-Based Assay - Set 2. [Related pubchem assays (depositor defined):AID1777, AID1785, AID1786, AID1966, AID2133, AID2136, AID2284, AID2285, AID2357]. It counts as functional.
In experiment [8] the target is T3, Mu-type opioid receptor. Kind of experiment: SAR Analysis of Antagonists of the MOR Receptor using an Image-Based Assay - Set 2. [Related pubchem assays (depositor defined):AID1777, AID1785, AID1786, AID1966, AID2133, AID2136, AID2284, AID2285, AID2420]. The class given is functional.
Experiment [9] concerns the target T4, Kappa-type opioid receptor. Kind of experiment: SAR analysis of Agonists of the Kappa Opioid Receptor (KOR) using an Image-Based Assay - Set 2. [Related pubchem assays (depositor defined):AID1777, AID1786, AID1966, AID2133, AID2136, AID2284, AID2285, AID2359]. It counts as functional.
Experiment [10] concerns the target T5, Delta-type opioid receptor. The experiment can be described thus: SAR Analysis of Agonists of the DOR Receptor using an Image-Based Assay - Set 2. [Related pubchem assays (depositor defined):AID1777, AID1785, AID1786, AID1966, AID2133, AID2136, AID2284, AID2285, AID2370]. It counts as functional.
The target of experiment [11] is T4, Kappa-type opioid receptor. The experiment can be described thus: SAR analysis of small molecule agonists of the kappa opioid receptor via a luminescent beta-arrestin assay - Set 2. [Related pubchem assays (depositor defined):AID1777, AID1785, AID1786, AID1966, AID2133, AID2136, AID2284, AID449737]. The class given is functional.
The target of experiment [12] is Intestinal-type alkaline phosphatase (Mus musculus, UniProt P24822). Kind of experiment: mouse intestinal alkaline phosphatase activators, dose response, biochemical, luminescence, uHTS hits (AID 488783). It counts as functional.
The target in experiment [13] is T6, Alkaline phosphatase, tissue-nonspecific isozyme (Homo sapiens, UniProt P05186).
T6 sequence (P05186 whole entry): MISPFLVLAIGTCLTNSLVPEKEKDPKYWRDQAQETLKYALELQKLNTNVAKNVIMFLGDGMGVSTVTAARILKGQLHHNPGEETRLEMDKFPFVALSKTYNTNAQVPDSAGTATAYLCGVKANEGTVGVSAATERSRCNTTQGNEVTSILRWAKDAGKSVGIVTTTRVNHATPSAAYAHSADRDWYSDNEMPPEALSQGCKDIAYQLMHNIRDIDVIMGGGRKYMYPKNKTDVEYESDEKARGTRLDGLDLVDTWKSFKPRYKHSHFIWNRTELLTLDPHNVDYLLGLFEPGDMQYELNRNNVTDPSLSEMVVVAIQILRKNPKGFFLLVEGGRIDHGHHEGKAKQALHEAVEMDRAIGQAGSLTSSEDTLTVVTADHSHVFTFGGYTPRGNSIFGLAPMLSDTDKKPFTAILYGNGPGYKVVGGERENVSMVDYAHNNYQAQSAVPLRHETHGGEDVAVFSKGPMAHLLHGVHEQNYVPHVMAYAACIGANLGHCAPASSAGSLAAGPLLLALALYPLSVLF
Kind of experiment: activation of tissue-nonspecific alkaline phosphatase – biochemical, TNAP isozyme, mouse IAP uHTS hits, selectivity assay for mouse IAP activator project, dose response (AID 488880). The class given is functional.

For experiment [14], the target named is T7, RNA-binding protein pos-1 (Caenorhabditis elegans, UniProt G5EF15).
T7 sequence (G5EF15 whole entry): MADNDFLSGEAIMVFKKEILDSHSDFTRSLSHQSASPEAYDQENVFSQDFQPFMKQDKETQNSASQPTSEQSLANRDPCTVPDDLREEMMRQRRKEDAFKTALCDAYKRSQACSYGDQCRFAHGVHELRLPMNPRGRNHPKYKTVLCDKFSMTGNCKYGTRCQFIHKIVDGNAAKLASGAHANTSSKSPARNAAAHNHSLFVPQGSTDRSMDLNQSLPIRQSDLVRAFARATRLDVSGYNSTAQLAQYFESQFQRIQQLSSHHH
The experiment can be described thus: disruptors of C. elegans POS-1 RNA interaction – biochemical, fluorescence polarization, dose response (AID 1964).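 Further: purified POS-1 fused to maltose binding protein made in E. coli; potency of compounds blocking POS-1 binding to fluorescent RNA.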 Background: Fluorescence polarisation rises when a labelled molecule tumbles more slowly, as on binding a larger partner.

The target of experiment [15] is T8, Zinc finger protein mex-5 (Caenorhabditis elegans, UniProt Q9XUB2).
T8 sequence (Q9XUB2 whole entry): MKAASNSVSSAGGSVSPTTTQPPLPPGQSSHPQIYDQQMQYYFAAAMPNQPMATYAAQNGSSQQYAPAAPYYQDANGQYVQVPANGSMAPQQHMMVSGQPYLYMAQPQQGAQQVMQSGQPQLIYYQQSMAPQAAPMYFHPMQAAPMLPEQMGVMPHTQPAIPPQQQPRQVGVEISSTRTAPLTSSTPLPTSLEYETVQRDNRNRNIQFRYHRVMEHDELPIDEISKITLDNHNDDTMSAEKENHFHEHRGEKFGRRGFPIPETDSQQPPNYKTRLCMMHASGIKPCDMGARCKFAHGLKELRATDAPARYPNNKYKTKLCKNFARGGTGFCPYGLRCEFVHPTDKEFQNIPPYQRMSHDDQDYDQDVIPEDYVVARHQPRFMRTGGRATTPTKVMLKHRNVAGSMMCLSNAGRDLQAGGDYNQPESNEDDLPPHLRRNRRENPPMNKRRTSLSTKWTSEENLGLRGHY
The experiment can be described thus: potency of MEX-5 RNA-binding blockers – biochemical, C. elegans, fluorescence polarization, dose response (AID 1960).

Experiment [16] has as its target Intestinal-type alkaline phosphatase (Homo sapiens, UniProt P09923). Kind of experiment: activation of human intestinal alkaline phosphatase – biochemical, dose response (AID 488873). It counts as functional.
Experiment [17] deals with Large T antigen (Simian virus 40, UniProt P03070). The class given is functional, Betapolyomavirus macacae.
The target of experiment [18] is T9, G-protein coupled receptor 55 (Homo sapiens, UniProt Q9Y2T6). Kind of experiment: selective activators of receptor GPR55 – imaging, U2OS cells, beta-arrestin-GFP redistribution, primary screen (AID 1961). It counts as functional.
For experiment [19], the target named is T9, G-protein coupled receptor 55. Kind of experiment: SAR analysis of selective Agonists of GPR55 using an Image-Based Assay. [Related pubchem assays (depositor defined):AID1961, AID1965]. The class given is functional.
In experiment [20] the target is T10, Cannabinoid receptor 2 (Homo sapiens, UniProt P34972). The experiment can be described thus: SAR analysis of agonists of the Cannabinoid Receptor 2 using an Image-Based Assay - Set 2. [Related pubchem assays (depositor defined):AID1961, AID1965]. The class given is functional.
The target of experiment [21] is Cannabinoid receptor 1 (Homo sapiens, UniProt P21554). Kind of experiment: SAR analysis of antagonists of the Cannabinoid Receptor 1 using an Image-Based Assay. [Related pubchem assays (depositor defined):AID1961, AID1965]. It counts as functional.
The target in experiment [22] is T10, Cannabinoid receptor 2. The experiment can be described thus: SAR analysis of antagonists of the Cannabinoid Receptor 2 using an Image-Based Assay - Set 2. [Related pubchem assays (depositor defined):AID1961, AID1965]. It counts as functional.

Active and inactive are the calls of the source.

T4 sequence (P41145 whole entry): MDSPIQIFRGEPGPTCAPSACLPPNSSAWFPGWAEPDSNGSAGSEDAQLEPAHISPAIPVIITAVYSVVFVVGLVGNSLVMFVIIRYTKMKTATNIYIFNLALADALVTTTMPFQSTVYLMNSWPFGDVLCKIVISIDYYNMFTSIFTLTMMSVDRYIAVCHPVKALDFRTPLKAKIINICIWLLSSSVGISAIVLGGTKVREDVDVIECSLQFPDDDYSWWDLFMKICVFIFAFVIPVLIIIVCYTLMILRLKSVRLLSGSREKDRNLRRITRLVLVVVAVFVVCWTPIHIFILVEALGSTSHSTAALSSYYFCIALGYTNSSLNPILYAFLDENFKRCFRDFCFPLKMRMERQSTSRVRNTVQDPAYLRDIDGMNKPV
T1 sequence (Q9UBE0 whole entry): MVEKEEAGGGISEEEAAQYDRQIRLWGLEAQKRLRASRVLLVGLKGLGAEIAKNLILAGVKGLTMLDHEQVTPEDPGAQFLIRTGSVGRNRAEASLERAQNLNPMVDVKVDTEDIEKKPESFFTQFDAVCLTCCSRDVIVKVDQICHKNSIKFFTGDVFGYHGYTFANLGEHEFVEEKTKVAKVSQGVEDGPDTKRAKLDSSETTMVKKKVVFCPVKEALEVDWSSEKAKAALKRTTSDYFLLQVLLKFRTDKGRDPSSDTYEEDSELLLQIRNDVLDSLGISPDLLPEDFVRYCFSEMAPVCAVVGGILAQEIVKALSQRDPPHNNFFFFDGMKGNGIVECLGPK
T1 sequence (Q9UBT2 whole entry): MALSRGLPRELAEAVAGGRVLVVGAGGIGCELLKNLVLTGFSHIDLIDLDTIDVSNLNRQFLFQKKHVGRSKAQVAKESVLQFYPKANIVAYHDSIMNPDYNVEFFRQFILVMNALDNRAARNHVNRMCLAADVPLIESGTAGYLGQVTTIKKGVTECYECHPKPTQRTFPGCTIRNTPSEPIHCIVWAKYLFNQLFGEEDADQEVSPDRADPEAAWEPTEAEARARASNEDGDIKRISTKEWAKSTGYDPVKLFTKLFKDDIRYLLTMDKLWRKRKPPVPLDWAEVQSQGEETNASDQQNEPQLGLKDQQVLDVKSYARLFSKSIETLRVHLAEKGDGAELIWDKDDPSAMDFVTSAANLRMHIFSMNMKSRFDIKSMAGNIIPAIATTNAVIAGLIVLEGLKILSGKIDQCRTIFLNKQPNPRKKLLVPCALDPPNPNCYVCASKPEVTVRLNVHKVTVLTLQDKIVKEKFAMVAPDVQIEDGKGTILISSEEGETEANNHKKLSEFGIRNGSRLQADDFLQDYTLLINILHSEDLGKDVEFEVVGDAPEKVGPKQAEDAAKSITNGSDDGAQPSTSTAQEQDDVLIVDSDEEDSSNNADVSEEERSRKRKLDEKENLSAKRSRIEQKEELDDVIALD
T9 sequence (Q9Y2T6 whole entry): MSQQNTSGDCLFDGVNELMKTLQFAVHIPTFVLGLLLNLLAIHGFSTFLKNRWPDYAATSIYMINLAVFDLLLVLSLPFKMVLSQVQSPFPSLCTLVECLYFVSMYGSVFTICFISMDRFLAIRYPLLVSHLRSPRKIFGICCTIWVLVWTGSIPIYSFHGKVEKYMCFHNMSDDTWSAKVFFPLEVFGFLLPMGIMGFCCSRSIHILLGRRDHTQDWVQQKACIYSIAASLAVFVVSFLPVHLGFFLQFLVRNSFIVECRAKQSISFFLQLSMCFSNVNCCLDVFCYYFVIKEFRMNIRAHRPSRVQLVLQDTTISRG
T10 sequence (P34972 whole entry): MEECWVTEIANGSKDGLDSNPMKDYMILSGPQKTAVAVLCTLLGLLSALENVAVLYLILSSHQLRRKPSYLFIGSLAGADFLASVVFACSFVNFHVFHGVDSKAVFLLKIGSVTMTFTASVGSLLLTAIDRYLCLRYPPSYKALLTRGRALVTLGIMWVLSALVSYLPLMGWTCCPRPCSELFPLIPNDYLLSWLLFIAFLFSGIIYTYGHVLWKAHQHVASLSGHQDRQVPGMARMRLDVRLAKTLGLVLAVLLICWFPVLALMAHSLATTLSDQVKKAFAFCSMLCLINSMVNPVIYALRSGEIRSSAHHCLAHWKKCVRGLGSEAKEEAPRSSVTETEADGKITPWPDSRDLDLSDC
T5 sequence (P41143 whole entry): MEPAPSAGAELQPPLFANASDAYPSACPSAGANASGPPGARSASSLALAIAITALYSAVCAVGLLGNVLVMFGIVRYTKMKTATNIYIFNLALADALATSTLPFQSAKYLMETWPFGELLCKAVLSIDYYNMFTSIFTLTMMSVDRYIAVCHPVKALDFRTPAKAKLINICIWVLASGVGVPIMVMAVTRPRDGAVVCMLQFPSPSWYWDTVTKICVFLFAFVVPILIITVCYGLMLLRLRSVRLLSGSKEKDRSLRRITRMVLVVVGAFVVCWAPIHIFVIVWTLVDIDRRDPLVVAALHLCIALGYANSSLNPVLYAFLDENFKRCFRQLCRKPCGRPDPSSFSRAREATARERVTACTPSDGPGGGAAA
T3 sequence (P35372 whole entry): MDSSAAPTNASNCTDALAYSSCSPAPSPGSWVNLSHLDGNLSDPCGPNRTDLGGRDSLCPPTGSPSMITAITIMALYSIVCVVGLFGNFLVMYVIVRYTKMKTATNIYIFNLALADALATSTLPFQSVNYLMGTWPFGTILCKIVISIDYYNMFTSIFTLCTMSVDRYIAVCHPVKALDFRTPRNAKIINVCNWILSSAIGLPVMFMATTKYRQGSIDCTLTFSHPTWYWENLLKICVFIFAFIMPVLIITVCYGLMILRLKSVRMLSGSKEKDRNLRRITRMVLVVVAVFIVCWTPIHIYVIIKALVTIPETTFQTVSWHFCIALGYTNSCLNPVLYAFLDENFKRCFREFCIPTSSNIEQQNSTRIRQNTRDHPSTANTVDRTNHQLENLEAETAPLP
Sequence of Cannabinoid receptor 1 (P21554 whole entry): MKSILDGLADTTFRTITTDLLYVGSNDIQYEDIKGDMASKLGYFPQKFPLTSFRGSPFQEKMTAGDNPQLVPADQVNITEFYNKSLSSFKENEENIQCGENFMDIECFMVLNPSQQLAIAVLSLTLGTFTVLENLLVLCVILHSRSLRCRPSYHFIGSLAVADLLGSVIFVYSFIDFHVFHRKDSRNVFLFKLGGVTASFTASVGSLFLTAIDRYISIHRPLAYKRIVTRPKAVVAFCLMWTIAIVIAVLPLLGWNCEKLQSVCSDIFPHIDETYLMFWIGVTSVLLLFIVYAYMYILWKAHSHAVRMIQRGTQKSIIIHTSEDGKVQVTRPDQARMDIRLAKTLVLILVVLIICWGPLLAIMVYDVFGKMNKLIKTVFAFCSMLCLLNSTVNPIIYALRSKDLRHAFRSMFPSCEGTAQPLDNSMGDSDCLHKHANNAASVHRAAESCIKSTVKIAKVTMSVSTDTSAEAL
Sequence of Large T antigen (P03070 whole entry): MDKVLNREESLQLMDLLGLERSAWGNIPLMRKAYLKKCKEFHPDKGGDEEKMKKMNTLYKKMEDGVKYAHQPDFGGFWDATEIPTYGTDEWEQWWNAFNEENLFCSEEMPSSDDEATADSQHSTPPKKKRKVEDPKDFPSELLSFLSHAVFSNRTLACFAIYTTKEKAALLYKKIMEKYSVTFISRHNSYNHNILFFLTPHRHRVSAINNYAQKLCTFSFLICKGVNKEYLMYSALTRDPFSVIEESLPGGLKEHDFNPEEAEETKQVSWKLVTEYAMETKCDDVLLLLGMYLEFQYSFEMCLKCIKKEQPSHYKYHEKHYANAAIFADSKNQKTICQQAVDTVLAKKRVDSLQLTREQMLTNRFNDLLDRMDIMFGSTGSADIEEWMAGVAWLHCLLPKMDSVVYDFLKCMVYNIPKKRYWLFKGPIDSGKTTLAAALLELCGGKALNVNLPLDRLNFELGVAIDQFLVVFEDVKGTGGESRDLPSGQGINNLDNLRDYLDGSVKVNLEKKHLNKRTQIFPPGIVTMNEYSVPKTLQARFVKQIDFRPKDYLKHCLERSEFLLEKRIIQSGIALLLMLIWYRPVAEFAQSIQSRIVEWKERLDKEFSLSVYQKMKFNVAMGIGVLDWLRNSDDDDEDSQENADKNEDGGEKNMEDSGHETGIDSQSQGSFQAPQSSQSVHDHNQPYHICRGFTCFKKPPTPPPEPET
Sequence of Intestinal-type alkaline phosphatase (Mus musculus, UniProt P24822) (P24822 whole entry): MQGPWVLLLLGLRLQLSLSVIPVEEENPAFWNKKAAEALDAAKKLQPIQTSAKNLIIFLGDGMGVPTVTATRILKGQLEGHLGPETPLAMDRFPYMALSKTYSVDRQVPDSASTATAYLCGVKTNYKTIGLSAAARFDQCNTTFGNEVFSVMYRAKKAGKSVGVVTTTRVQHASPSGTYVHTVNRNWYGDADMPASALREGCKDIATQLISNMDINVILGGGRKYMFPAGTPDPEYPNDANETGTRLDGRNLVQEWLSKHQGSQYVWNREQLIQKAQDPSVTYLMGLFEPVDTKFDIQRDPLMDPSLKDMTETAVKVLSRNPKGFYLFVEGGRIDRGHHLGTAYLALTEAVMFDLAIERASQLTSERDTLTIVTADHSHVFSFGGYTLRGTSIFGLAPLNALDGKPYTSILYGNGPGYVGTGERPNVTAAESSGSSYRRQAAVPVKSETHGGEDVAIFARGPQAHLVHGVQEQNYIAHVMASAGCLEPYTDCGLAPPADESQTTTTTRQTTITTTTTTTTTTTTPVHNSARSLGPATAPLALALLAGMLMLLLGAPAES

A word on the IC50: it is the midpoint of a concentration-inhibition curve. As a reminder, the EC50 is the concentration that produces a half-maximal response. With `O=c1cc(CSc2nnnn2-c2ccccc2)nc(Nc2ccc(F)cc2)[nH]1`, the IC50 was 6.47 µM (active) in experiment [1], > 50 µM (not active) in experiment [3] and 11.5 µM (active) in experiment [4]. For the same compound, in [2], the EC50 was 12.5 µM (active).

`Cc1ccc(CSc2nnc(-c3ccccn3)n2Cc2ccco2)cc1`: the EC50 is > 32 µM (inactive) in [5], 5.21 µM (active) in experiment [9], > 32 µM (inactive) in [10] and 6.21 µM (active) in [11]. Besides, the IC50 in experiment [6], in experiment [7] and in experiment [8] was > 32 µM (inactive) throughout.

As to `Oc1ccc(-c2csc(Nc3ccccn3)n2)cc1O`, the EC50 was 24.9 µM (active) in [12]; 47.9 µM (active) in [13]; 74.1 µM (active) in experiment [14]; 17.3 µM (active) in [15]; 48.7 µM (active) in experiment [16]. Moreover, the IC50 in experiment [17] is 51.7 µM (active).

In the case of `COc1ccc(S(=O)(=O)N2CCOCC2)cc1NC(=O)c1cc2c(s1)CCCC2`, the EC50 in experiment [18] was 0.524 µM (active); in [19], 0.305 µM (active); in experiment [20], > 32 µM (inactive). Further, the IC50 in experiment [21] and in experiment [22] was > 32 µM (inactive) in each case.
